Measured values from patent US20220395582A1, “COMPOSITIONS AND METHODS OF INDUCING DIFFERENTIATION OF A HAIR CELL” (Akouos, Inc., priority 2018, published 2022).

Legend:
ATOH1, POU4F3, and GFI1 = assay: Relative quantification of ATOH1, POU4F3 and GFI1 RNA in HEK293FT cells transfected with individual plasmids; format: cell-based; settings: FIG. 6A
From the text: FIG. 6A is a bar graph showing the relative quantification of ATOH1, POU4F3, and GFI1 (APG) RN in HEK293FT cells transfected with the individual plasmids of FIGS. 4A-C.
The data in FIGS. 6A and 6B show overexpression of ATOH1, POU4F3 and GFI-1 in HEK293FT cells that were transfected with the vectors of FIGS. 4A-4D.

[1] = system: hair cells and supporting cells in cochlear explants; assay: mScarlet positive hair cells and supporting cells in cochlear explants infected with AAVanc80, with and without TMP; format: cell-based, mouse; settings: with and without 10 uM TMP, FIG. 10
Method: FIG. 9A is an image showing mScarlet positive cells in a P1-P3 mouse cochlea explant transfected with AAVanc80 vector at various MOIs. 10 μM TMP was added at a later time point.
FIG. 10 is an image showing mScarlet positive hair cells and supporting cells in a cochlear explants infected with AAVanc80 with and without 10 uM TMP that was added at a later time point.
(§1) HEK293FT cells were transfected with mScarlet and mScarlet-DD vectors (FIGS. 7A-7B). The data in FIGS. 8A and 8B show the functionality and reversibility of the destabilizing domain (DD) using fluorescence microscopy and flow cytometry, respectively.

HEK293FT cells [2] = assay: Destabilizing domain (DD) functionality and reversibility, TMP dose response by fluorescence microscopy; format: cell-based; settings: TMP 0.1, 1, 10, 20 and 100 μM, FIG. 8A
Method: FIG. 8A is a dose response curve showing the functionality and reversibility of the destabilizing domain (DD) using fluorescence microscopy. Serial dilutions of TMP (0.1 μM, 1 μM, 10 μM, 20 μM and 100 μM) were tested in the mScarlet and mScarlet-DD transfected HEK293FT cells.
as §1

HEK293FT cells [3] = assay: mScarlet positive HEK293FT cells with AAVanc80 vector at various MOIs, with or without TMP; format: cell-based; settings: 10 μM TMP added later, FIGS. 9A and 9B
Method: FIG. 9B is an image showing mScarlet positive HEK293FT cells transfected with AAVanc80 vector at various MOIs. 10 μM TMP was added at a later time point.
as §1

Molecule	ATOH1 and GFI-1 mRNA levels on overexpression of POU4F3 (ATOH1, POU4F3, and GFI1)	mScarlet expression in cochlear explants [1]	percentage of mScarlet positive cells (HEK293FT cells [2])	mScarlet expression (HEK293FT cells [3])
POU4F3: nucleic acid vector with CMV promoter, human POU4F3 gene, 3×Flag, T2A, mScarlet and destabilizing domain	increase in ATOH1 and GFI-1 mRNA levels	–	–	–
mScarlet-DD: nucleic acid vector with ITR, CMV promoter, mScarlet, destabilizing domain (DD) and bGHpA sequences	–	only seen in the presence of TMP	increased proportionately with increasing concentration of TMP	primarily seen in mScarlet-DD transfected cells in the presence of TMP
mScarlet: nucleic acid vector with ITR, CMV promoter, mScarlet and bGHpA sequences (nucleic acid, pITR-CMV-mScarlet-bGHpA) DNA: CCTGCAGGCAGCTGCGCGCTCGCTCGCTCACTGAGGCCGCCCGGGCGTCGGGCGACCTTTGGTCGCCCGGCCTCAGTGAGCGAGCGAGCGCGCAGAGAGGGAGTGGCCAACTCCATCACTAGGGGTTCCTGTGATGCGGTTTTGGCAGTACATCAATGGGCGTGGATAGCGGTTTGACTCACGGGGATTTCCAAGTCTCCACCCCATTGACGTCAATGGGAGTTTGTTTTGGCACCAAAATCAACGGGACTTTCCAAAATGTCGTAACAACTCCGCCCCATTGACGCAAATGGGCGGTAGGCGTGTACGGTGGGAGGTCTATATAAGCAGAGCTCGTTTAGTGAACCGTCAGATCGCCTGGAGACGCGTGAGCAAGGGCGAGGCAGTGATCAAGGAGTTCATGCGGTTCAAGGTGCACATGGAGGGCTCCATGAACGGCCACGAGTTCGAGATCGAGGGCGAGGGCGAGGGCCGCCCCTACGAGGGCACCCAGACCGCCAAGCTGAAGGTGACCAAGGGTGGCCCCCTGCCCTTCTCCTGGGACATCCTGTCCCCTCAGTTCATGTACGGCTCCAGGGCCTTCATCAAGCACCCCGCCGACATCCCCGACTACTATAAGCAGTCCTTCCCCGAGGGCTTCAAGTGGGAGCGCGTGATGAACTTCGAGGACGGCGGCGCCGTGACCGTGACCCAGGACACCTCCCTGGAGGACGGCACCCTGATCTACAAGGTGAAGCTCCGCGGCACCAACTTCCCTCCTGACGGCCCCGTAATGCAGAAGAAGACAATGGGCTGGGAAGCGTCCACCGAGCGGTTGTACCCCGAGGACGGCGTGCTGAAGGGCGACATTAAGATGGCCCTGCGCCTGAAGGACGGCGGCCGCTACCTGGCGGACTTCAAGACCACCTACAAGGCCAAGAAGCCCGTGCAGATGCCCGGCGCCTACAACGTCGACCGCAAGTTGGACATCACCTCCCACAACGAGGACTACACCGTGGTGGAACAGTACGAACGCTCCGAGGGCCGCCACTCCACCGGCGGCATGGACGAGCTGTACAAGTAAGCTGATCAGCCTCGACTGTGCCTTCTAGTTGCCAGCCATCTGTTGTTTGCCCCTCCCCCGTGCCTTCCTTGACCCTGGAAGGTGCCACTCCCACTGTCCTTTCCTAATAAAATGAGGAAATTGCATCGCATTGTCTGAGTAGGTGTCATTCTATTCTGGGGGGTGGGGTGGGGCAGGACAGCAAGGGGGAGGATTGGGAAGACAATAGCAGGCATGCTGGGGATGCGGTGGGCTCTATGGAGGAACCCCTAGTGATGGAGTTGGCCACTCCCTCTCTGCGCGCTCGCTCGCTCACTGAGGCCGGGCGACCAAAGGTCGCCCGACGCCCGGGCTTTGCCCGGGCGGCCTCAGTGAGCGAGCGAGCGCGCAGCTGCCTGCAGG	–	seen in hair cells and supporting cells	remained constant regardless of TMP concentration	seen in all HEK293FT cells
